Assay results: US20260035384A1, “COMPOUND CONTAINING CYCLOHEXYL” (CHIA TAI TIANQING PHARMACEUTICAL GROUP CO., LTD., priority 2022, published 2026)

Experiments:
Format in all cases: cell-based
LNCaP cells = test: Assay on inhibitory activity for LNCaP cell proliferation (CCK-8); settings: Homo sapiens, 168 h incubation
Summary of the method: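 Cells seeded at 1×10^5 cells/mL in phenol red-free 1640 with 2% CSS-FBS, treated at final 10000 nM-0.61 nM in duplicate. After 168 h incubation, viability read with CCK-8.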

AR in LNCaP cells = biological target: T1, AR in LNCaP cells (Homo sapiens, UniProt P10275, T878A); test: Assay on degradation activity for AR in LNCaP cells (HTRF human androgen receptor detection kit); settings: 24 h incubation
T1 construct: Assay on Degradation Activity for AR in LNCaP Cells; endogenous in cells; host or cells: LNCaP cells
T1 sequence (P10275 1-920 T878A): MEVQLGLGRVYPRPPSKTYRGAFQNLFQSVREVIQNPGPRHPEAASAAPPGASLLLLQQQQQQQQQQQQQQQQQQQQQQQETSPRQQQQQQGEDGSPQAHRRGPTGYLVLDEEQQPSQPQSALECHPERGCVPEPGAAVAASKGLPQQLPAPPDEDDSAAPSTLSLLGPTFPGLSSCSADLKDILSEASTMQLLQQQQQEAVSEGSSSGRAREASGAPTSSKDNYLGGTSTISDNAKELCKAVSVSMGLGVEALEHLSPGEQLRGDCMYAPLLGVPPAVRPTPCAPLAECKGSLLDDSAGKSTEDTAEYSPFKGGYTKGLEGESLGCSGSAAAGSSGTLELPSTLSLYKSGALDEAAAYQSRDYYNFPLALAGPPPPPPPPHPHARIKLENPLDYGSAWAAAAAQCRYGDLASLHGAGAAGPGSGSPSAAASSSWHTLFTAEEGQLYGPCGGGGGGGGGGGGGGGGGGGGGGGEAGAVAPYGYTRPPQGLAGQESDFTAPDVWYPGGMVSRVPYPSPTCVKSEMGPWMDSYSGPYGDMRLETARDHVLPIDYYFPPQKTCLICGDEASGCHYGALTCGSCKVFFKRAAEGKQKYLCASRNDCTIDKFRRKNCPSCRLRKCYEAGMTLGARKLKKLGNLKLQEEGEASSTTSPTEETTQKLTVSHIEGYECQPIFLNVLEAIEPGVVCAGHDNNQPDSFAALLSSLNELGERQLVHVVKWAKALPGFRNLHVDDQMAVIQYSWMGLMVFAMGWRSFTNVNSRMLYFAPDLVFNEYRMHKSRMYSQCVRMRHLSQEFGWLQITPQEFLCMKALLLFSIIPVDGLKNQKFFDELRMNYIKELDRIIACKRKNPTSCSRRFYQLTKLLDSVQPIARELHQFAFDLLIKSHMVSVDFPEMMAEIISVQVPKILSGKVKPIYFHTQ
Summary of the method: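 LNCaP cells seeded in 2% CSS-FBS phenol red-free 1640 medium overnight, then treated in duplicate with 500 nM–0.488 nM compound for 24 h. AR in lysates quantified by HTRF (Eu cryptate/d2 antibodies, 2 h, 25 °C, 665/620 nm); DC50 and Dmax from four-parameter fits.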

VCaP cells = test: Assay on inhibitory activity for VCaP cell proliferation (CCK-8); settings: Homo sapiens, 168 h incubation
Summary of the method: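 VCaP cells seeded at 1×10^5 cells/mL in phenol red-free DMEM with 5% charcoal-stripped FBS, treated in duplicate at 10000–0.61 nM final. After 168 h incubation, viability was read with CCK-8.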

In the case of `N#Cc1ccc(O[C@H]2CC[C@H](NC(=O)c3ccc(C4CCN(C5CN(c6cc7onc(C8CCC(=O)NC8=O)c7c7ccccc67)C5)CC4)nn3)CC2)cc1Cl` (stereo partly shown) [Compound 48], the IC50 (LNCaP cells) is reported as < 1000 nM, the DC50 (AR in LNCaP cells; HTRF) is reported as ≤ 20 nM and the Dmax (AR in LNCaP cells; maximum degradation rate) is reported as > 80%. The IC50 (VCaP cells) was < 100 nM.
